In brackets after ≈: the same amount, converted by molar mass. Like-named read-outs stand apart in the source and are kept apart here.
Experiments:
[1] = safety evaluation in the Phase I study; assay type: in vivo, human; conditions: single oral doses, healthy subjects
Description: Treatment-emergent adverse events (TEAEs), serious adverse events (SAEs), vital signs, ECG measurements (triplicate), physical examination, standard laboratory evaluations.

[2] = tested on: TTR; conditions: cited from earlier work
[3] = solubility assessment of micronized tolcapone in buffers (HPLC assay and visual observation); assay type: physicochemical; conditions: for solubility at 1 h / solubility at 2 h: buffer, thermodynamic from solid
Procedure: Two aliquots of each sample were taken at 1 and 2 hour time points. One aliquot was used for Assay and Related Substances analysis by reverse phase HPLC and the other aliquot was used to obtain microscopic images using 5.5× magnification, polarised and non-polarised light. In addition, representative photograph of each n=1 sample at 1 hour time point were taken for information. pH of each sample was measured at 2 hour time point.

Cc1ccc(C(=O)c2cc(O)c(O)c([N+](=O)[O-])c2)cc1 [tolcapone]
safety and tolerability [1]: safe and well tolerated | overall mean increase in plasma TTR tetramer concentration ([2]; 100 mg three times daily 14 days then 200 mg three times daily 14 days, oral, hATTR-leptomeningeal patients, plasma): 55% | mean decrease of monomeric TTR concentration in CSF ([2]; same regimen, CSF, measured under semi-denaturing conditions): 48% | solubility (in words) ([3]; acidic conditions): poorly soluble | solubility (in words) ([3]; at about pH 6.8): improved solubility | solubility at 1 h ([3]; pH 2, aqueous buffer, pH 2.0, 1 Hour, replicates N=1, N=2, read-out: Assay (solubility by HPLC)): 23 µg/mL (≈ 84.2 µM) | solubility at 1 h ([3]; pH 2, aqueous buffer, pH 2.0, 1 Hour, read-out: Mean Assay (solubility by HPLC)): 20 µg/mL (≈ 73.2 µM) | solubility at 2 h ([3]; pH 2, aqueous buffer, pH 2.0, 2 Hour, replicates N=1, N=2, read-out: Assay (solubility by HPLC)): 20 µg/mL (≈ 73.2 µM) | solubility at 2 h ([3]; pH 2, aqueous buffer, pH 2.0, 2 Hour, read-out: Mean Assay (solubility by HPLC)): 21 µg/mL (≈ 76.9 µM) | solubility at 1 h ([3]; pH 4.5, aqueous buffer, pH 4.5, 1 Hour, replicates N=1, N=2, read-out: Assay (solubility by HPLC)): 45 µg/mL (≈ 165 µM) | solubility at 1 h ([3]; pH 4.5, aqueous buffer, pH 4.5, 1 Hour, read-out: Mean Assay (solubility by HPLC)): 45 µg/mL (≈ 165 µM) | solubility at 2 h ([3]; pH 4.5, aqueous buffer, pH 4.5, 2 Hour, replicates N=1, N=2, read-out: Assay (solubility by HPLC)): 52 µg/mL (≈ 190 µM) | solubility at 2 h ([3]; pH 4.5, aqueous buffer, pH 4.5, 2 Hour, read-out: Mean Assay (solubility by HPLC)): 51 µg/mL (≈ 187 µM) | solubility at 1 h ([3]; pH 5.5, aqueous buffer, pH 5.5, 1 Hour, replicates N=1, N=2, read-out: Assay (solubility by HPLC)): 258 µg/mL (≈ 944 µM) | solubility at 1 h ([3]; pH 5.5, aqueous buffer, pH 5.5, 1 Hour, read-out: Mean Assay (solubility by HPLC)): 248 µg/mL (≈ 908 µM) | solubility at 2 h ([3]; pH 5.5, aqueous buffer, pH 5.5, 2 Hour, replicates N=1, N=2, read-out: Assay (solubility by HPLC)): 283 µg/mL (≈ 1040 µM) | solubility at 2 h ([3]; pH 5.5, aqueous buffer, pH 5.5, 2 Hour, read-out: Mean Assay (solubility by HPLC)): 275 µg/mL (≈ 1010 µM) | solubility at 1 h ([3]; pH 6.8, aqueous buffer, pH 6.8, 1 Hour, replicates N=1, N=2, read-out: Assay (solubility by HPLC)): 920 µg/mL (≈ 3370 µM) | solubility at 1 h ([3]; pH 6.8, aqueous buffer, pH 6.8, 1 Hour, read-out: Mean Assay (solubility by HPLC)): 1280 µg/mL (≈ 4690 µM) | solubility at 2 h ([3]; pH 6.8, aqueous buffer, pH 6.8, 2 Hour, replicates N=1, N=2, read-out: Assay (solubility by HPLC)): 905 µg/mL (≈ 3310 µM) | solubility at 2 h ([3]; pH 6.8, aqueous buffer, pH 6.8, 2 Hour, read-out: Mean Assay (solubility by HPLC)): 1030 µg/mL (≈ 3780 µM) | solubility at 1 h ([3]; pH 7.4, aqueous buffer, pH 7.4, 1 Hour, replicates N=1, N=2, read-out: Assay (solubility by HPLC)): 473 µg/mL (≈ 1730 µM) | solubility at 1 h ([3]; pH 7.4, aqueous buffer, pH 7.4, 1 Hour, read-out: Mean Assay (solubility by HPLC)): 463 µg/mL (≈ 1690 µM) | solubility at 2 h ([3]; pH 7.4, aqueous buffer, pH 7.4, 2 Hour, replicates N=1, N=2, read-out: Assay (solubility by HPLC)): 489 µg/mL (≈ 1790 µM) | solubility at 2 h ([3]; pH 7.4, aqueous buffer, pH 7.4, 2 Hour, read-out: Mean Assay (solubility by HPLC)): 501 µg/mL (≈ 1830 µM) | Assay (solubility by HPLC) ([3]; pH 2.0, 1 Hour, replicates N=1, N=2): 18 µg/mL | Assay (solubility by HPLC) ([3]; pH 2.0, 2 Hour, replicates N=1, N=2): 23 µg/mL | Assay (solubility by HPLC) ([3]; pH 4.5, 2 Hour, replicates N=1, N=2): 51 µg/mL | Assay (solubility by HPLC) ([3]; pH 5.5, 1 Hour, replicates N=1, N=2): 237 µg/mL | Assay (solubility by HPLC) ([3]; pH 5.5, 2 Hour, replicates N=1, N=2): 267 µg/mL | Assay (solubility by HPLC) ([3]; pH 6.8, 1 Hour, replicates N=1, N=2): 1644 µg/mL | Assay (solubility by HPLC) ([3]; pH 6.8, 2 Hour, replicates N=1, N=2): 1163 µg/mL | Assay (solubility by HPLC) ([3]; pH 7.4, 1 Hour, replicates N=1, N=2): 452 µg/mL | Assay (solubility by HPLC) ([3]; pH 7.4, 2 Hour, replicates N=1, N=2): 513 µg/mL
